Results on ten molecules are retold here after ChEMBL document CHEMBL1201862, “PubChem BioAssay data set” (2004).

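Five compound concentrations were applied to cells in 96-well plates for 48 hours; endpoints were derived by simple linear interpolation of the resulting dose-response curve. GI50 marks 50% less growth.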 Active and inactive are the calls of the source. Cut-off read from the data, not from the text of the source: active = GI50 up to about 1.1 µM and inactive = higher.

Assay in all cases: NCI-60 cell line screen, 48 h
The subject of experiment [1] is M14.
Experiment [2] concerns SK-MEL-2.
Experiment [3] relates to A498.
Experiment [4] deals with NCI-H226.
For experiment [5], the system named is T47D.
Experiment [6] has as its system SNB-19.
In experiment [7] the test system is SW-620.
Experiment [8] deals with COLO 205.
Experiment [9] has as its system EKVX.
The test system of experiment [10] is RPMI-8226.
In experiment [11] the test system is MOLT-4.
Experiment [12] deals with NCI-H522.
Experiment [13] has as its system NCI-H460.
Experiment [14] concerns SK-MEL-28.
The test system of experiment [15] is SNB-75.
Experiment [16] deals with SR.
Experiment [17] deals with NCI-H23.
Experiment [18] concerns MDA-MB-231.
Experiment [19] deals with DU-145.

For the molecule `O=C1CC(n2cccc2)c2cc(Br)sc21` (stereo not given), the GI50 in experiment [1] was > 100 µM (inactive); in experiment [2], > 100 µM (inactive); in experiment [3], > 100 µM (inactive); in experiment [4] it was > 100 µM (inactive); in experiment [5] it was 48.3 µM (inactive); in experiment [6], > 100 µM (inactive). Moreover, the GI50 in [7] was 35 µM (inactive); in experiment [8], > 100 µM (inactive); in experiment [9], > 100 µM (inactive); in [10], 26.4 µM (inactive); in experiment [11], 16.1 µM (inactive); in [12], 21.6 µM (inactive). For the same molecule, the GI50 in [13] was > 100 µM (inactive); in [14], > 100 µM (inactive); in experiment [15], 7.93 µM (inactive); in experiment [16], 15.8 µM (inactive); in experiment [17], 39.1 µM (inactive); in experiment [18], > 100 µM (inactive). Besides, the GI50 in experiment [19] was > 100 µM (inactive).
Regarding `CCOC(=O)NC(Nc1ccc(F)cc1F)(C(F)(F)F)C(F)(F)F`, the GI50 in experiment [1], in [2], in [3], in [4], in [5] and in experiment [6] was > 100 µM (inactive) in each case. Besides, the GI50 in [7], in [8], in experiment [9], in experiment [10], in experiment [11] and in experiment [12] was > 100 µM (inactive) each time. In addition, the GI50 in experiment [13], in [14], in [15], in experiment [16], in experiment [17] and in experiment [18] was > 100 µM (inactive) in each case. In experiment [19], the GI50 is > 100 µM (inactive).
Turning to `NC(=O)/N=C1\NCCC(=O)N1CCc1c[nH]c2ccccc12`, the GI50 was 14.8 µM (inactive) in [1]; 14.2 µM (inactive) in experiment [2]; 17.3 µM (inactive) in [3]; 18.2 µM (inactive) in experiment [4]; 27.5 µM (inactive) in [5]; 21.4 µM (inactive) in experiment [6]. The GI50 in experiment [7] is 26.7 µM (inactive); in [8] it was 14.1 µM (inactive); in experiment [9] it was 14.6 µM (inactive); in experiment [10] it was 18.7 µM (inactive); in experiment [11], 14.5 µM (inactive); in experiment [12], 25.7 µM (inactive). Also, the GI50 in experiment [13] was 16.3 µM (inactive); in experiment [14] it was 20.9 µM (inactive); in [15], 10.2 µM (inactive); in [16] it was 25.8 µM (inactive); in experiment [17], 22.7 µM (inactive); in [18], 8.09 µM (inactive). Also, the GI50 in experiment [19] was 21 µM (inactive).
As for `O=C1c2ccccc2C(=O)[C@@]23O[C@@]12C1(Oc2cccc4cccc(c24)O1)[C@@H]1O[C@@H]1[C@@H]3O`, the GI50 in [1] is 8.97 µM (inactive); in experiment [2], 19.2 µM (inactive); in experiment [3] it was 26.9 µM (inactive); in experiment [4], 8.39 µM (inactive); in [5], 9.16 µM (inactive); in [6] it was 13.3 µM (inactive). In addition, the GI50 in experiment [7] was 6.93 µM (inactive); in experiment [8], 9.91 µM (inactive); in experiment [9], 20.5 µM (inactive); in [10] it was 2.68 µM (inactive); in [11] it was 2.7 µM (inactive); in experiment [12], 3.36 µM (inactive). Further, the GI50 in experiment [13] is 9.86 µM (inactive); in [14], 20.6 µM (inactive); in [15], 10.7 µM (inactive); in [16] it was 1.43 µM (inactive); in experiment [17], 13.6 µM (inactive); in [18], 14.8 µM (inactive). In experiment [19], the GI50 is 14.6 µM (inactive).
With `CCOC(=O)C(NC(=O)OCc1ccccc1)C(=O)O` (stereo not given), the GI50 in [1], in [2], in [3], in experiment [4], in experiment [5] and in experiment [6] was > 100 µM (inactive) each time. Besides, the GI50 in [7], in [8], in experiment [9], in experiment [10], in [11] and in experiment [12] was > 100 µM (inactive) each time. Besides, the GI50 in experiment [13], in [14], in experiment [15], in [16], in [17] and in [18] was > 100 µM (inactive) each time. In addition, the GI50 in experiment [19] is > 100 µM (inactive).
Consider `Cc1cccc2cc3ccc4ccccc4c3cc12`, for which the GI50 is 48.5 µM (inactive) in [1]; 26.5 µM (inactive) in [2]; 44.2 µM (inactive) in [3]; 37 µM (inactive) in experiment [4]; 22.1 µM (inactive) in [5]; 76.2 µM (inactive) in experiment [6]. Besides, the GI50 was 44 µM (inactive) in [7]; 19.4 µM (inactive) in experiment [8]; 21.2 µM (inactive) in experiment [9]; 34.6 µM (inactive) in [10]; 25.7 µM (inactive) in experiment [11]; 27.9 µM (inactive) in experiment [12]. Besides, the GI50 in experiment [13] is 25.4 µM (inactive); in experiment [14], > 100 µM (inactive); in [15], 69.2 µM (inactive); in experiment [16] it was 22.2 µM (inactive); in experiment [17], 54.5 µM (inactive); in experiment [18], 51.3 µM (inactive). In addition, the GI50 in experiment [19] was 66.5 µM (inactive).
As to `CC(C)NC(=O)OCc1c(COC(=O)NC(C)C)c(-c2cc[n+](COC(=O)C3CCCCC3)cc2)n2c1CCC2`, the GI50 in [1], in [2], in [3], in [4], in experiment [5] and in [6] was > 100 µM (inactive) each time. The GI50 in [7] is > 100 µM (inactive); in experiment [8], > 100 µM (inactive); in [9] it was > 100 µM (inactive); in experiment [10] it was > 100 µM (inactive); in [11], 40.8 µM (inactive); in experiment [12], > 100 µM (inactive). Further, the GI50 in [13] is 70 µM (inactive); in experiment [14] it was > 100 µM (inactive); in [15], 43.4 µM (inactive); in experiment [16] it was 9.25 µM (inactive); in [17], > 100 µM (inactive); in [18] it was > 100 µM (inactive). In experiment [19], the GI50 is > 100 µM (inactive).
As for `C=CCCC1CCCCC/C1=N\N(C)C` (stereo not given), the GI50 in experiment [1], in experiment [2], in experiment [3], in experiment [4], in experiment [5] and in experiment [6] was > 100 µM (inactive) throughout. In addition, the GI50 in experiment [7], in experiment [8], in [9], in [10], in [11] and in [12] was > 100 µM (inactive) throughout. The GI50 in [13], in experiment [14], in experiment [15], in experiment [16], in experiment [17] and in experiment [18] was > 100 µM (inactive) each time. Further, the GI50 in experiment [19] is > 100 µM (inactive).
As to `N#Cc1cc2c(cc1Cl)Sc1nccn1S2(=O)=O`, the GI50 was 0.619 µM (active) in experiment [1]; 3.74 µM (inactive) in experiment [2]; 18.3 µM (inactive) in [3]; 5.89 µM (inactive) in [4]; 1.99 µM (inactive) in experiment [5]; 8.2 µM (inactive) in experiment [6]. Besides, the GI50 in [7] is 3.54 µM (inactive); in experiment [8], 12.4 µM (inactive); in experiment [9], 14.5 µM (inactive); in experiment [10] it was 2.92 µM (inactive); in experiment [11], 0.667 µM (active); in [12], 1.15 µM (inactive). Further, the GI50 in experiment [13] was 9.53 µM (inactive); in [14] it was 2.32 µM (inactive); in experiment [15], 7.53 µM (inactive); in experiment [16], 1 µM (active); in experiment [17], 1.51 µM (inactive); in experiment [18], 3.59 µM (inactive). In experiment [19], the GI50 is 2.33 µM (inactive).
In the case of `Cc1[nH]c(-c2ccccc2)c(O)c1C(=O)OC12CC3CC(CC(C3)C1)C2`, the GI50 in experiment [1] is 12.4 µM (inactive); in experiment [2], 16.7 µM (inactive); in experiment [3], 20.5 µM (inactive); in experiment [4], 14.1 µM (inactive); in experiment [5], 15.8 µM (inactive); in [6], 15 µM (inactive). For the same molecule, the GI50 is 16.2 µM (inactive) in experiment [7]; 13.9 µM (inactive) in [8]; 13.8 µM (inactive) in experiment [9]; 37 µM (inactive) in [10]; 12.5 µM (inactive) in experiment [11]; 10.1 µM (inactive) in experiment [12]. Further, the GI50 in [13] was 7.82 µM (inactive); in [14], 14.7 µM (inactive); in experiment [15], 10.8 µM (inactive); in experiment [16], 12.6 µM (inactive); in [17], 16.3 µM (inactive); in experiment [18] it was 18.5 µM (inactive). For the same molecule, in experiment [19], the GI50 is 15.6 µM (inactive).
